These results are taken from patent US20250188141A1, “DECOY PEPTIDES FOR TREATING DISEASES OR CONDITIONS MODULATED BY INTERLEUKIN-33” (University of Maryland, Baltimore, priority 2022, published 2025).

No end group written: not given here. Some results are limits rather than exact numbers.

Series [1] has as its system mice challenged intratracheally with a single dose bleomycin (BLM). Briefly: Acute BLM challenge model (intratracheal 0.08 U BLM), therapeutic regimen with CPP-DPs. Format: in vivo, mouse. To be noted: for collagen accumulation in lung / pulmonary IL-33 accumulation: end of 3 weeks, vs PBS-treated animals; for total body weight over time: intraperitoneal once a day from day 8 for 2 weeks, vs BLM-challenged, PBS-treated mice. The source says: FIG. 5. Therapeutic effects of CPP-DPs in the acute BLM challenge model. A. Time course schematic of the acute BLM challenge model. […] Data in panels B and C were pooled data from separate 3 experiments.
To test the ability of these peptides to deplete the levels of IL-33 in vivo and to assess their ability to modulate the degree of pulmonary fibrosis, these peptides were synthesized, HPLC-purified, and tested in the therapeutic regimen in mice challenged intratracheally with a single dose bleomycin (BLM). In this acute BLM challenge mode, mice received intratracheal 0.08 U of BLM or an equal volume phosphate-buffered saline (PBS) control and allowed to respond to such injury for a week without any intervention. On day 8, intraperitoneal administrations of CPP-DPs once a day were started and continued for 2 weeks. In the end of the 3 weeks, mice have been euthanized, lungs extracted, and pulmonary levels of IL-33 and collagen measured.

For series [2], the system named is mice chronically challenged with BLM. Nature of the series: Chronic BLM challenge model (BLM intraperitoneally twice a week for 33 days), treatment with CPP-DPs. Format: in vivo, mouse. Particulars: for total body weight over time: intraperitoneal three times a week, started after 14 days of challenge. An excerpt: FIG. 6. Therapeutic effects of CPP-DPs in the chronic BLM challenge model. A. Time course schematic of the chronic BLM challenge model. B. Time-dependent changes in total body weight (mean percent of initial body weight ±SD. Asterisks indicate higher (p<0.05) body weights in CPP-DP-treated compared to PBS control-treated mice. C. Individual collagen levels, μg per mg of wet lung tissue (left), and IL-33 levels, pg per mg of wet lung tissue (right), in lung homogenates from mice treated as indicated. Asterisks indicate lower (p<0.05) levels in BLM-challenged, PBS-treated control mice.
We then considered that such acute model of bleomycin injury, despite its universal use in this field of work, is well known to represent the chronic nature of human pulmonary fibrosis less accurately than the chronic model of systemic BLM delivery. In the chronic model, BLM is injected intraperitoneally twice a week for 33 days, with subsequent assessment of pulmonary changes (FIG. 6A). We challenged mice in this fashion, and, after 14 days such chronic challenge at which point the decline in their total body weight became obvious (FIG. 6B), initiated treatment with CPP-DP5, CPP-DP10, or PBS injected intraperitoneally three times a week (FIG. 6A). […] Of note, such therapy with CPP-DP5 was efficacious despite the continued challenge with repeated administration of BLM (FIG. 6A).

Series [3] deals with Wild-type C57BL/6 mice challenged with BLM. Briefly: Acute BLM model in vivo (single intratracheal 0.075 U BLM), therapeutic regimen with Series 2 peptides. Particulars: for pulmonary levels of IL-33 (ELISA, lung homogenates) / total lung collagen (QuickZyme assay): 10 nmol/g intraperitoneal daily on days 5-13, day 14; for signs of toxicity (ruffled fur, hunched posture, reduced mobility, diarrhea, weight lost, tachypnea) / therapeutic effect against fibrosis: acute BLM injury model; for signs of toxicity (ruffled fur, hunched posture, reduced mobility, diarrhea, weight lost, tachypnea): in vivo; for therapeutic effect against fibrosis: therapeutic mode. Further details: species or system mouse. An excerpt:
FIG. 2. Design of decoy peptides in Series 2 (A), the effects of peptides 2-5 and 2-10 on pulmonary levels of IL-33 (B, D), and collagen (C, D) proteins in the acute BLM model in vivo. In panels B and D, mean ±SD values are shown. […] Wild-type C57BL/6 mice were challenged with a single intratracheal instillation of 0.075 U of BLM or PBS vehicle, and the disease was allowed to evolve for 5 days. On days 5-13, mice received daily intraperitoneal injections of 10 nmol/g of peptides 2-5 or 2-10, or PBS vehicle. Mice were euthanized on day 14, and IL-33 levels measured by ELISA in lung homogenates, whereas total lung collagen was measured using QuickZyme assays.
(§1) We propose development of a new IL-33 attenuating therapy based on CPP-DP-based strategy. […] In each peptide 1-1 and 1-2, the CPP penetratin was N-terminally fused to the DP. The final sequences of peptides 1-1 and 1-2 were […] (SEQ ID NO:69) and ROIKIWFONRRMKWKKFRRETTKRPSLKTG (SEQ ID NO:70), respectively, with the CPP portion shown in italic and the DP portions underlined. Primary fibroblasts were electroporated with FLIL33-encoding and, separately, control non-coding vehicle (NULL) plasmids, and, after 24 h, the medium was replaced with added peptides 1-1 or 1-2. Based on our experience with CPP-DPs, initial concentrations of 20 μM and 40 μM were tested. After an additional 24 h, cells were lysed and the lysates were analyzed for the levels of IL-33 by ELISA. […] The most likely explanation for this effect is based on our previous experience of depleting IPOS with CRISPR-Cas9, AdV-shRNA, and siRNA technologies (Clerman et al., J Biol Chem. (2017). 292:21653-61: Kopach et al., J Biol Chem. (2014). 289:11829-43). We previously observed that a complete or nearly complete depletion of IPO5 using these methodologies quickly leads to cell death, whereas substantial yet incomplete depletion of IPO5 levels abrogates FLIL33 without affecting cell viability. We argue that peptide 1-1 is “too effective” in binding IPO5, thus competing for it not only with FLIL33 but also with other critical molecular partners, and ultimately impeding on cell survival. We then undertook a more rigorous, unbiased approach, based on the following considerations. As stated above in relation to Example 1, there are possible multiple other regions in the N-terminal portion of FLIL33 that control its stability, subcellular localization, secretion, maturation, and functional binding of intracellular molecular partners. Targeting by DPs needs to cover the entire N-terminal part of FLIL33 and be performed in a systematic fashion, and the data integrated with the observations in Examples 1 and 2. […] We began by designing Series 2 of overlapping DPs that together cover the entire N-terminus of FLIL33. In all cases, a different CPP (TAT) is fused on the N terminus, based on the possibility that it may decrease the peptide load per cell and thus limit toxicity. […] We then proceeded to test the capacity of this peptide to deplete the levels of IL-33 in vivo and to determine whether such depletion may be protective, in the therapeutic mode, against fibrosis in the acute BLM injury model. […] Thus, peptide 2-5 fused with TAT may be a promising therapeutic agent. However, this and other peptides in this series need to be considered in detail.
(In general: An ELISA detects its analyte on a solid surface through an enzyme-linked reagent.)

A further series concerns IL-33. Nature of the series: Initial cell culture screening tests of Series 2 peptides for depletion of IL-33. Format: cell-based. Particulars: TAT-fused Series 2 peptide, most pronounced of the series. The source says: We propose development of a new IL-33 attenuating therapy based on CPP-DP-based strategy. […] In each peptide 1-1 and 1-2, the CPP penetratin was N-terminally fused to the DP. The final sequences of peptides 1-1 and 1-2 were […] (SEQ ID NO:69) and ROIKIWFONRRMKWKKFRRETTKRPSLKTG (SEQ ID NO:70), respectively, with the CPP portion shown in italic and the DP portions underlined. Primary fibroblasts were electroporated with FLIL33-encoding and, separately, control non-coding vehicle (NULL) plasmids, and, after 24 h, the medium was replaced with added peptides 1-1 or 1-2. Based on our experience with CPP-DPs, initial concentrations of 20 μM and 40 μM were tested. After an additional 24 h, cells were lysed and the lysates were analyzed for the levels of IL-33 by ELISA. […] The most likely explanation for this effect is based on our previous experience of depleting IPOS with CRISPR-Cas9, AdV-shRNA, and siRNA technologies (Clerman et al., J Biol Chem. (2017). 292:21653-61: Kopach et al., J Biol Chem. (2014). 289:11829-43). […]
Studies in human and mouse cell cultures. […] CPP-DPs and control CPPs will be added to cell culture, and the levels of the overexpressed proteins assessed in cell lysates by ELISA as well as by WB for the HA-tag, which is attached to the C-terminus of all of these proteins.

The subject of the next series is Primary fibroblasts. Briefly: Cell viability / toxicity of peptides in FLIL33-overexpressing or NULL-transfected primary fibroblasts. Format: cell-based. To be noted: for effect on cell viability (toxicity to cells): initial concentrations of 20 μM and 40 μM, FLIL33-overexpressing or NULL-transfected fibroblasts, 24 h.
Source text: as §1

Setting [4] is: vs CPP-DP10-treated and PBS-treated controls.

Take SGLMIKKEACYFRRET [2-7]: in series [1], the “collagen accumulation in lung” value is “significantly less collagen”, the “pulmonary IL-33 accumulation” value is listed as “significantly less” and the “total body weight over time” value is “quickly recovered their body weight”.

On to GRKHKRHLVLAACQQQ [peptide 2-10], for which, in series [2], the “total body weight over time” value is reported as “not”. In series [3], the “pulmonary levels of IL-33 (ELISA, lung homogenates)” value is given as “not”; the “total lung collagen (QuickZyme assay)” value is “not”; the “signs of toxicity (ruffled fur, hunched posture, reduced mobility, diarrhea, weight lost, tachypnea)” value is given as “Neither of these two peptides caused any signs of toxicity”; the “therapeutic effect against fibrosis” value is given as “did not”. In series [1], the “collagen accumulation in lung” value is “not” and the “total body weight over time” value is reported as “closely followed the same trend”.

QQKAKEVCPMYFMKLR [peptide 2-5]: the “total body weight over time” value in series [2] is reported as “regained their body weight in a time-dependent fashion”. In series [2] (setting [4]), the “collagen accumulation in lung” value was “significantly less collagen” and the “pulmonary IL-33 accumulation” value is “significantly less”. Moreover, in series [3], the “pulmonary levels of IL-33 (ELISA, lung homogenates)” value is given as “attenuated the levels of IL-33”; the “total lung collagen (QuickZyme assay)” value was “arrested deposition of collagen”; the “signs of toxicity (ruffled fur, hunched posture, reduced mobility, diarrhea, weight lost, tachypnea)” value is on record as “Neither of these two peptides caused any signs of toxicity”; the “therapeutic effect against fibrosis” value is given as “encouraging therapeutic effect”. Also, in the series on IL-33, the “depletion of IL-33” value was “exceeding 60 % of the original levels”. In addition, in series [1], the “collagen accumulation in lung” value is “significantly less collagen”, the “pulmonary IL-33 accumulation” value is on record as “significantly less” and the “total body weight over time” value is “quickly recovered their body weight”.

Turning to “RQIKIWFQNRRMKWKKFRRETTKRPSLKTG-NH2 [peptide 1-2, ROIKIWFONRRMKWKKFRRETTKRPSLKTG]”, in the series with Primary fibroblasts, the “effect on cell viability (toxicity to cells)” value is “no effect on cell viability”.

Turning to “RQIKIWFQNRRMKWKKFMKLRSGLMIKKEA-NH2 [peptide 1-1]”, in the series on Primary fibroblasts, the “effect on cell viability (toxicity to cells)” value is “highly toxic to cells”. Further, in the series on Primary fibroblasts (serial dilutions), the “concentrations at which the peptide remains toxic (as low as)” value was at least 2500 nM. The “toxicity at concentrations lower than 2.5 μM” value in the series with Primary fibroblasts (serial dilutions, lower concentrations) is “becomes non-toxic”.
